Where two headings read alike, the source gives them in different places.
Columns and labels:
DmmA [1] = molecular target: T1, DmmA (Lyngbya majuscula, UniProt Q6DND9); assay: ITC progress curves; format: biochemical
T1 construct: gene curN; His-tagged, expressed in E. coli BL21(DE3), Ni-NTA purified; PDB 3U1T for the docking model of the same protein
T1 sequence (Q6DND9 25-341): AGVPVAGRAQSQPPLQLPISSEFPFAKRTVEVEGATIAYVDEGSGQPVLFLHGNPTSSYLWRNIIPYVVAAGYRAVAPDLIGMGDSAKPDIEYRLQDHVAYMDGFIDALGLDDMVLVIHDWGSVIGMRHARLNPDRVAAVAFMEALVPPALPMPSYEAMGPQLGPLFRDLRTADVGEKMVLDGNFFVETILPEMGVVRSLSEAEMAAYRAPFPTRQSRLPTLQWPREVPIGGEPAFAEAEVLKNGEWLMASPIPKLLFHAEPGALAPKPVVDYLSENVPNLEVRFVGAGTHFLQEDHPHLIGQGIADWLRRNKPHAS
Source text: ITC progress curves on DmmA | Z-isomer of substrate 3a binds to the enzyme’s active site and functions as a competitive inhibitor

LinB [2] = molecular target: T2, LinB (Sphingobium indicum, UniProt D4Z2G1); assay: stopped-flow tryptophan fluorescence after preincubation; format: biochemical; settings: 100 mM glycine pH 8.6, 37 °C; slow irreversible inhibition, substrate E-3c
T2 construct: His-tagged, expressed in E. coli BL21(DE3), Ni-NTA purified; PDB 1MJ5 given for the docking model of the same protein
T2 sequence (D4Z2G1 2-296): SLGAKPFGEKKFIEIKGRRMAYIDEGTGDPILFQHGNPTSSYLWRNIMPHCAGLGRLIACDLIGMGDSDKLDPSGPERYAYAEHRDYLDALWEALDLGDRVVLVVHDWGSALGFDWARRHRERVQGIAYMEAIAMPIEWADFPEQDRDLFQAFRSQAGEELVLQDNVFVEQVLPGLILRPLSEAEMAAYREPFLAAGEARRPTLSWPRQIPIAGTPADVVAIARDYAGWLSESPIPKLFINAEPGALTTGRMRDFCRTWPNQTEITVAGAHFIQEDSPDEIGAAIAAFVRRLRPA

LinB [3] = molecular target: T2, LinB; assay: global fit of stopped-flow fluorescence/absorbance and ITC; format: biochemical; settings: 100 mM glycine pH 8.6, 37 °C
Source text: global fit of stopped-flow fluorescence/absorbance and ITC on LinB

DmmA [4] = molecular target: T1, DmmA; assay: as above; format: biochemical; settings: 100 mM glycine pH 8.6, 37 °C; enzyme-product complex after isomerization (EP2); read-out: K5
Source text: global fit of stopped-flow fluorescence/absorbance and ITC on DmmA

ITC progress curves = substrate: C[N+](C)(C)Cc1ccc(/N=N/c2cccc(CCl)c2)cc1; assay: ITC progress curves; format: biochemical, Lyngbya majuscula; settings: 100 mM glycine pH 8.6, 37 °C

COCCOCCOc1ccc(/N=N\c2cccc(CCl)c2)cc1 [3a, Z-3a]
Ki (DmmA [1]): 0.035 ± 0.001 µM

C[N+](C)(C)Cc1ccc(/N=N\c2cccc(CCl)c2)cc1 (mixture of isomers) [3c, Z-3c]
stopped-flow tryptophan fluorescence after preincubation (LinB [2]): the inhibition effect of Z-3c was significantly more prominent in the case of LinB

C[N+](C)(C)Cc1ccc(/N=N/c2cccc(CCl)c2)cc1 [3c, E-3c]
Kd (LinB [3]; equilibrium dissociation constant of enzyme-substrate complex, read-out: K1): 7.39 ± 0.03 µM

C[N+](C)(C)Cc1ccc(/N=N/c2cccc(CO)c2)cc1 [3c, E-3c-OH]
Kd (LinB [3]; enzyme-product complex (EP), read-out: K4): 11.6 ± 0.1 µM | Kd (DmmA [4]): 3.55 ± 1.01 µM

B1: DmmA (Lyngbya majuscula) (protein)
chain: AGVPVAGRAQSQPPLQLPISSEFPFAKRTVEVEGATIAYVDEGSGQPVLFLHGNPTSSYLWRNIIPYVVAAGYRAVAPDLIGMGDSAKPDIEYRLQDHVAYMDGFIDALGLDDMVLVIHDWGSVIGMRHARLNPDRVAAVAFMEALVPPALPMPSYEAMGPQLGPLFRDLRTADVGEKMVLDGNFFVETILPEMGVVRSLSEAEMAAYRAPFPTRQSRLPTLQWPREVPIGGEPAFAEAEVLKNGEWLMASPIPKLLFHAEPGALAPKPVVDYLSENVPNLEVRFVGAGTHFLQEDHPHLIGQGIADWLRRNKPHAS
notes: His-tagged, expressed in E. coli BL21(DE3), Ni-NTA purified; PDB 3U1T for the docking model of the same protein
Km (ITC progress curves): 850 ± 40 µM | kcat (ITC progress curves): 0.50 ± 0.03 s⁻¹

From PMC11301625, “Azobenzene-Based Photoswitchable Substrates for Advanced Mechanistic Studies of Model Haloalkane Dehalogenase Enzyme Family” (ACS Catalysis, 2024)
